We go through three compounds from US11541027B2 (DelMar Pharmaceuticals, Inc., priority 2014, dated 2023).

“Also recorded” adds a separate entry of the source.

Data set [1] has as its system NSCLC cell lines other than H460. The data set can be described thus: Cytotoxicity in NSCLC tumor models, range over the cell lines other than H460. Type of data set: cell-based, human. The following applies: NSCLC cell lines other than H460, single agents.
The test system of data set [2] is A549 (TKI-sensitive) human lung adenocarcinoma xenograft tumors. The data set can be described thus: A549 NSCLC xenograft tumor model in female Rag2 mice. On the procedure:
(§1) Rag2 mice bearing subcutaneous human lung adenocarcinoma xenograft tumors of either TKI-resistant (H1975) or TKI-sensitive (A549) origin were treated.
(§2) Two human NSCLC cell lines, A549 (TKI-sensitive) and H1975 (TKI-resistant), were used as xenograft tumor models in female Rag2 mice. The mice were 6 to 8 weeks of age and weighed 18-23 grams. 10 mice were used per group.
Cisplatin was used in normal saline at a dose of 5 mg/kg. Administration was intravenous.
Administration was intraperitoneal.
Treatment was initiated at a tumor volume of 100 mm^3 to 150 mm^3.
The cells were started from a frozen vial of lab stock that were frozen down from the ATCC original vial and kept in liquid nitrogen. Cell cultures with a passage number of 3 to 10 and a confluence of 80%-90% were used. […] Cells were subcultured once weekly with a split ratio 1:3 to 1:8 and expanded.
For cell preparation and harvesting for subcutaneous (s.c.) inoculation, the cells were rinsed briefly once with Hanks Balanced Salt Solution without calcium or magnesium. […] The cells were allowed to sit at 37° C. for a few minutes. The cells were observed under an inverted microscope until the cell layer was dispersed, fresh medium was added, 50 μL of cell suspension was taken and mixed with trypan blue (1:1), and the cells were counted and cell viability assessed by using Cellometer Auto T4. The cells were centrifuged at 200×g for 7 minutes and the supernatant was aspirated. The cells were resuspended in growth medium to obtain a concentration of 100×10^6 cells/mL. For inoculation, 5×10^6 cells were used in an injection volume of 50 μL per mouse in 1:1 Matrigel.
On day 0, tumor cells were implanted subcutaneously into mice in a volume of 50 μL in Matrigel using a 28-gauge needle; injection of the tumor cells was in the back of the mice. Mice were randomly assigned to groups based on tumor volume.
For administration, 5 mL of 0.9% sodium chloride for injection, USP (saline) was added to yield a DAG solution with a concentration of 8 mg/mL.
Mice were injected with the required volume to administer the prescribed dose (mg/kg) to the animals based on individual mouse weights using a 28-gauge needle. The injection volume was 200 μL for a 20-g mouse. The mice were briefly (less than 30 seconds) restrained during intravenous injections. Dilation of the vein for intravenous injections was achieved by holding the animals under a heat lamp for a period of between 1-2 minutes.
Mice were individually weighed and injected intraperitoneally according to body weight at the specified injection concentration (see Table 1). The injection volume was based on 200 μL per 20-g mouse. The abdominal surface was wiped down with 70% isopropyl alcohol to clean the injection site.
Tumor growth was monitored by measuring tumor dimensions with calipers beginning on the first day of treatment. Tumor length and width measurements were obtained each Monday, Wednesday, and Friday. Tumor volumes were calculated according to the equation L×W^2/2 with the length (in mm) being defined as the longer axis of the tumor. Animals were weighed at the time of tumor measurement. Tumors were allowed to grow to a maximum of 800 mm^3 before termination.
All animals had blood collected by cardiac puncture at termination for CBC (complete blood count) with differentiation.
In particular, signs of ill-health were based on body weight loss, change in appetite, and behavioral signs such as altered gait, lethargy, and gross manifestations of stress.

Data set [3] concerns H226. The data set can be described thus: Cytotoxicity in NSCLC tumor models. The following applies: H226, p53 wt; N = 3. In kind it is cell-based, human. An excerpt:
(§3) The cell lines include cell lines with wild-type p53, cell lines with mutant p53, and cell lines in which p53 has been knocked out (“null”). The properties of these cell lines are described in F. Bunz et al., “Requirement for p53 and p21 to Sustain G2 Arrest After DNA Damage,” Science 282: 1497-1501 (1998), incorporated herein by this reference.

For data set [4], the system named is H838. The experiment in a line: Cytotoxicity in NSCLC tumor models. In kind it is cell-based, human. Conditions: H838, p53 wt; N = 3.
From the text: as §3

For data set [5], the system named is A549. The data set can be described thus: Cytotoxicity in NSCLC tumor models. The following applies: A549, p53 wt; N = 3. In kind it is cell-based, human.
From the text: as §3

For data set [6], the system named is H157. The data set can be described thus: Cytotoxicity in NSCLC tumor models. Type of data set: cell-based, human. Conditions: H157, p53 mu; N = 3.
From the text: as §3

The test system of data set [7] is H1299. The data set can be described thus: Cytotoxicity in NSCLC tumor models. Type of data set: cell-based, human. The following applies: H1299, p53 null; N = 3.
From the text: as §3

Data set [8] has as its system H1975. The data set can be described thus: Cytotoxicity in NSCLC tumor models. Type of data set: cell-based, human. The following applies: H1975, p53 mu; N = 3.
From the text: as §3

Data set [9] relates to SkLU1. The experiment in a line: Cytotoxicity in NSCLC tumor models. Type of data set: cell-based, human. The following applies: SkLU1, p53 mu; N = 3.
From the text: as §3

Data set [10] has as its system H2122. The data set can be described thus: Cytotoxicity in NSCLC tumor models. Conditions: H2122, p53 mu; N = 3. Type of data set: cell-based, human.
From the text: as §3

Data set [11] relates to H460. The experiment in a line: Cytotoxicity in NSCLC tumor models. Type of data set: cell-based, human. The following applies: H460, p53 wt; N = 3.
From the text: as §3

In data set [12] the test system is RIF-1 cell-line. The experiment in a line: Standard syngeneic mouse fibrosarcoma model, tumor growth delay. Type of data set: in vivo. Conditions: 4 mg/kg, single IP injection, RIF-1 in C3H mice; for Tumor Delay: vs untreated.
The test system of data set [13] is H1975 (TKI-resistant) human lung adenocarcinoma xenograft tumors. The experiment in a line: H1975 NSCLC xenograft tumor model in female Rag2 mice. On the procedure: as §1, §2
Rag2 mice bearing subcutaneous human lung adenocarcinoma xenograft tumors of either TKI-sensitive (A549) or TKI-resistant (H1975) origin were treated. […] Saline was used as control treatment. Disease progression was evaluated by tumor volume, clinical observations and body weight measurements. Blood samples were analyzed for CBC/differential analyses to assess myelosuppression or other changes in blood chemistry.
Cell number for inoculation was 5×10^6 cells for A549 cells in an injection volume of 50 μL per animal. For H1975 cells, cell number for inoculation was 2×10^6 cells in an injection volume of 50 μL per animal.
Treatment was initiated at average tumor volume of 100-150 mm^3.
Tumor growth delay (TGD) was calculated according to Equation (2): TGD=DTtx−DTcontrol (2).
For these calculations, TV is tumor volume, tx is treatment, int is initial, DT is doubling time for mean tumor volume from 200 mm^3 to 400 mm^3 for A549 or from 300 mm^3 to 600 mm^3 for H1975. MTV is mean tumor volume in mm^3 and TCR is tumor control ratio.
Disease progression was evaluated by tumor volume, clinical observations and body weight measurements.

The conditions of data set [14]: cited from earlier work.
[15] abbreviates: 5 mg/kg i.v. Q7D × 3, A549 model.
Setting [16] is: group 2, 5 mg/kg Q7D×3 i.v., A549 model, days post-inoculation.

For orientation: IC50 means the concentration that gives 50% inhibition. High values mean a need for much substance, low ones inhibition by little substance. Turning to `N.N.[Cl][Pt][Cl]` [Cisplatin, cisplatin, reference compound], the IC50 in data set [1] is 500 to 2200 nM; in [3], 1.82 µM; in data set [4] it was 1.18 µM; in data set [5], 0.74 µM; in [6], 2.16 µM; in data set [7], 1.2 µM. For the same compound, the IC50 is 0.45 µM in data set [8], 0.89 µM in [9], 1.07 µM in [10] and 0.45 µM in data set [11]. For the same compound, the “MTV at Day 68” value in data set [2] (setting [15]) is 460 mm^3. Besides, the “Median survival” value in [2] (setting [15]) amounted to 72 days; in data set [13] (5 mg/kg i.v. Q7D × 3), 31 days. Further, the “TCR at Day 68” value in data set [2] (5 mg/kg i.v. Q7D × 3, A549 model, tumor control ratio) came out at 0.72. Besides, the “TGD” value in data set [2] (5 mg/kg i.v. Q7D × 3, A549 model, tumor growth delay vs untreated control, doubling time 200 to 400 mm^3) turned out to be 4 days. Also, the “TGI (%)” value in [2] (5 mg/kg i.v. Q7D × 3, A549 model, tumor growth inhibition) is given as 29%. The “body weight / tolerability of the dosage” value in data set [2] (5 mg/kg i.v. Q7D × 3, A549 tumor-bearing Rag2 mice) was “body weight loss was observed; also recorded: near the MTD”. Also, the “number of animals remaining on study on day 70” value in data set [2] (group 2, 5 mg/kg Q7D×3 i.v., A549 model) is on record as 6/10. Besides, the “day on which a mean tumor volume of 200 mm^3 was observed” value in data set [2] (setting [16]) is recorded as 49 days. Besides, the “day on which a mean tumor volume of 400 mm^3 was reached” value in [2] (setting [16]) is reported as 66 days. This compound also gave a doubling time in [2] (group 2, 5 mg/kg Q7D×3 i.v., A549 model, mean tumor volume 200 to 400 mm^3) of 17. For the same compound, the “Days to 4 × Median Tumor Size” value in data set [12] was 7.75 days. Besides, the “Tumor Delay” value in data set [12] is 1.45 days; in data set [12] (listed as cisplatin) it was 1.5 days. Besides, in data set [13] (5 mg/kg i.v. Q7D × 3), the “MTV at Day 31” value is reported as 381 mm^3. Further, the body weight entry in [13] (5 mg/kg i.v. Q7D × 3 (group 2)) is recorded as “Body weight loss was observed”. Besides, in data set [13] (5 mg/kg i.v. Q7D × 3, tumor control ratio), the “TCR at Day 31” value is recorded as 0.83.
Turning to `O[C@H]([C@H](O)[C@@H](O)CBr)[C@H](O)CBr` [dibromodulcitol], the “absorption by the oral route” value in data set [14] is “rapid and fairly complete”.
`O=C1[O][Pt]2([NH][C@@H]3CCCC[C@H]3[NH]2)[O]C1=O` [Oxaliplatin, oxaliplatin]: the IC50 is 600 to 2600 nM in [1]; 0.82 µM in data set [3]; 2.63 µM in [4]; 0.57 µM in data set [5]; 2.04 µM in data set [6]; 0.64 µM in [7]. Also, the half-maximal inhibitory concentration (IC50) amounted to 0.51 µM in [8], 2.02 µM in data set [9], 1.42 µM in [10] and 0.36 µM in data set [11].
